Measured values from patent US9745283B2, “Uracil derivatives as AXL and c-MET kinase inhibitors” (priority 2011, dated 2017).
pIC50: −log10 of the molar value.

The compounds below were run against recombinant human baculovirus-expressed cMET (Homo sapiens (Human), UniProt P08581) (assay: C-MET Kinase Assay (HTRF KinEASE)). Settings: average of two or more determinations; read-out: c-MET IC50.
Type: biochemical
Protocol: The cMET kinase assay was performed in 384-well Fluotrac™ 200 HiBase microplates using the HTRF KinEASE™ assay described above for AXL except that the assay volume was reduced to half. Enzyme concentration was 8 ng/mL of recombinant human baculovirus-expressed cMET while the substrate concentrations were 0.1 μM and 0.02 μM for the biotinylated peptide and ATP, respectively. Instead of the Multidrop Combi, the BioRAPTR® FRD microfluidic workstation (Beckman Coulter, Brea, Calif.) was utilized for reagent additions.
Inhibition curves for compounds were generated by plotting percent control activity versus log 10 of the concentration of compound. IC50 values were calculated by nonlinear regression using the sigmoidal dose-response (variable slope) equation in GraphPad Prism as follows: y=bottom+(top−bottom)/(1+10(log IC50−x)*Hill Slope) where y is the % kinase activity at a given concentration of compound, x is the logarithm of the concentration of compound, bottom is the % of control kinase activity at the highest compound concentration tested, and top is the % of control kinase activity at the lowest compound concentration examined. The values for bottom and top were fixed at 0 and 100, respectively.

SMILES	pIC50
CCn1cc(C(=O)Nc2ccc(Oc3ccnc4cc(OC)c(OC)cc34)c(Cl)c2)c(=O)n(-c2ccc(F)cc2)c1=O [Example 152]	7.00 to 8.00
COc1cc2nccc(Oc3ccc(NC(=O)c4cn(C(C)C)c(=O)n(-c5ccc(F)cc5)c4=O)c(N(C)C)c3)c2cc1OC [Example 154, 3-(4-Fluoro-phenyl)-1-isopropyl-2,4-dioxo-1,2,3,4-tetrahydro-pyrimidine-5-carboxylic acid [4-(6,7-dimethoxy-quinolin-4-yloxy)-2-dimethylamino-phenyl]-amide]	6.00 to 7.00
CCn1cc(C(=O)Nc2ccc(Oc3ccnc4cc(OC)c(OC)cc34)c(C(C)C)c2)c(=O)n(-c2ccc(F)cc2)c1=O [Example 155, 1-Ethyl-3-(4-fluoro-phenyl)-2,4-dioxo-1,2,3,4-tetrahydro-pyrimidine-5-carboxylic acid [4-(6,7-dimethoxy-quinolin-4-yloxy)-3-isopropyl-phenyl]-amide]	7.00 to 8.00
CCn1cc(C(=O)Nc2ccc(Oc3ccnc4cc(OC)c(OC)cc34)c(C)c2C)c(=O)n(-c2ccc(F)cc2)c1=O [Example 157, 1-Ethyl-3-(4-fluoro-phenyl)-2,4-dioxo-1,2,3,4-tetrahydro-pyrimidine-5-carboxylic acid [4-(6,7-dimethoxy-quinolin-4-yloxy)-2,3-dimethyl-phenyl]-amide]	6.00 to 7.00
CCn1cc(C(=O)Nc2cc(C)c(Oc3ccnc4cc(OC)c(OC)cc34)c(C)c2)c(=O)n(-c2ccc(F)cc2)c1=O [Example 161, 1-Ethyl-3-(4-fluoro-phenyl)-2,4-dioxo-1,2,3,4-tetrahydro-pyrimidine-5-carboxylic acid [4-(6,7-dimethoxy-quinolin-4-yloxy)-3,5-dimethyl-phenyl]-amide]	7.00 to 8.00
COc1cc2nccc(Oc3c(C)cc(NC(=O)c4cn(C(C)C)c(=O)n(-c5ccc(F)cc5)c4=O)cc3C)c2cc1OC [Example 162, 3-(4-Fluoro-phenyl)-1-isopropyl-2,4-dioxo-1,2,3,4-tetrahydro-pyrimidine-5-carboxylic acid [4-(6,7-dimethoxy-quinolin-4-yloxy)-3,5-dimethyl-phenyl]-amide]	7.00 to 8.00
COc1cc2nccc(Oc3ccc(NC(=O)c4cn(C(C)C)c(=O)n(-c5ccc(F)cc5)c4=O)cc3C)c2cc1OC [Example 163, 3-(4-Fluoro-phenyl)-1-isopropyl-2,4-dioxo-1,2,3,4-tetrahydro-pyrimidine-5-carboxylic acid [4-(6,7-dimethoxy-quinolin-4-yloxy)-3-methyl-phenyl]-amide]	7.00 to 8.00

The next lines start with the values.

pIC50	SMILES
7.00 to 8.00	CCn1cc(C(=O)Nc2ccc(Oc3ccnc4cc(OC)c(OC)cc34)c(C)c2)c(=O)n(-c2ccc(F)cc2)c1=O [Example 148, 1-Ethyl-3-(4-fluoro-phenyl)-2,4-dioxo-1,2,3,4-tetrahydro-pyrimidine-5-carboxylic acid [4-(6,7-dimethoxy-quinolin-4-yloxy)-3-methyl-phenyl]-amide]
7.00 to 8.00	COc1cc2nccc(Oc3ccc(NC(=O)c4cn(C(C)C)c(=O)n(-c5ccc(F)cc5)c4=O)cc3C(C)C)c2cc1OC [Example 156, 3-(4-Fluoro-phenyl)-1-isopropyl-2,4-dioxo-1,2,3,4-tetrahydro-pyrimidine-5-carboxylic acid [4-(6,7-dimethoxy-quinolin-4-yloxy)-3-isopropyl-phenyl]-amide]
6.00 to 7.00	COc1cc2nccc(Oc3ccc(NC(=O)c4cn(C(C)C)c(=O)n(-c5ccc(F)cc5)c4=O)c(C)c3C)c2cc1OC [Example 158, 3-(4-Fluoro-phenyl)-1-isopropyl-2,4-dioxo-1,2,3,4-tetrahydro-pyrimidine-5-carboxylic acid [4-(6,7-dimethoxy-quinolin-4-yloxy)-2,3-dimethyl-phenyl]-amide]
6.00 to 7.00	COc1cc2nccc(Oc3ccc(NC(=O)c4cn(C(C)C)c(=O)n(-c5ccc(F)cc5)c4=O)cc3C(F)(F)F)c2cc1OC [Example 160, 3-(4-Fluoro-phenyl)-1-isopropyl-2,4-dioxo-1,2,3,4-tetrahydro-pyrimidine-5-carboxylic acid [4-(6,7-dimethoxy-quinolin-4-yloxy)-3-trifluoromethyl-phenyl]-amide]
